# ChEMBL document CHEMBL3885881, “DrugMatrix”
# Species on record: Rattus norvegicus
# Type: toxicity, organism-based, Sprague-Dawley
# Conditions: in vivo, po, route oral GAVAGE, vehicle 100 % SALINE; for ABSOLUTE EOSINOPHIL / ABSOLUTE LYMPHOCYTE / ABSOLUTE MONOCYTE / ABSOLUTE SEGMENTED NEUTROPHIL / BASOPHIL / EOSINOPHIL / ERYTHROCYTE COUNT / HEMATOCRIT / HEMOGLOBIN / LEUKOCYTE COUNT / LYMPHOCYTE / MEAN CORPUSCULAR HEMOGLOBIN / MEAN CORPUSCULAR HEMOGLOBIN CONCENTRATION / MONOCYTE / NEUTROPHIL / NUCLEATED RED BLOOD CELLS / PLATELET COUNT: tissue Blood; for ALANINE AMINOTRANSFERASE / ALBUMIN / ALKALINE PHOSPHATASE / ASPARTATE AMINOTRANSFERASE / BLOOD UREA NITROGEN / CARBON DIOXIDE / CHLORIDE / CHOLESTEROL / CREATINE PHOSPHOKINASE / CREATININE / GLUCOSE / LACTATE DEHYDROGENASE / LIPASE / PHOSPHORUS / POTASSIUM / SODIUM / TOTAL BILIRUBIN / TOTAL PROTEIN / URIC ACID: tissue Plasma
# [1] = 0 mg/kg, 6 h, vehicle control, dose level Control, time 0.25 day
# [2] = 0 mg/kg, 24 h, vehicle control, dose level Control, time 1 day
# [3] = 700 mg/kg, 6 h, dose level Low, time 0.25 day
# Description: DrugMatrix - Regimen: Single
compound,measurement,setting,value
CN(C)C=O [DIMETHYLFORMAMIDE],ABSOLUTE EOSINOPHIL,[1],24 CELLS/uL
same,ABSOLUTE LYMPHOCYTE,[1],11958.17 CELLS/uL
same,ABSOLUTE MONOCYTE,[1],398.83 CELLS/uL
same,ABSOLUTE SEGMENTED NEUTROPHIL,[1],1252.33 CELLS/uL
same,BASOPHIL,[1],0%
same,EOSINOPHIL,[1],0.17%
same,ERYTHROCYTE COUNT,[1],5.37 x10E6/uL
same,HEMATOCRIT,[1],35.6%
same,HEMOGLOBIN,[1],13.05 G/DL
same,LEUKOCYTE COUNT,[1],13.63 x10E3/uL
same,LYMPHOCYTE,[1],87.67%
same,MEAN CORPUSCULAR HEMOGLOBIN,[1],24.28 pg
same,MEAN CORPUSCULAR HEMOGLOBIN CONCENTRATION,[1],36.67 G/DL
same,MONOCYTE,[1],2.83%
same,NEUTROPHIL,[1],9.33%
same,NUCLEATED RED BLOOD CELLS,[1],0 /100WBC
same,PLATELET COUNT,[1],947.83 x10E3/uL
same,ALANINE AMINOTRANSFERASE,[1],51 u/L
same,ALBUMIN,[1],4.02 G/DL
same,ALKALINE PHOSPHATASE,[1],312.33 u/L
same,ASPARTATE AMINOTRANSFERASE,[1],98.17 u/L
same,BLOOD UREA NITROGEN,[1],9.5 mg/dL
same,CARBON DIOXIDE,[1],18.83 mmol/L
same,CHLORIDE,[1],103.5 MEQ/L
same,CHOLESTEROL,[1],69.5 mg/dL
same,CREATINE PHOSPHOKINASE,[1],580.17 u/L
same,CREATININE,[1],0.53 mg/dL
same,GLUCOSE,[1],175.67 mg/dL
same,LACTATE DEHYDROGENASE,[1],295.5 u/L
same,LIPASE,[1],8.17 u/L
same,PHOSPHORUS,[1],14.12 mg/dL
same,POTASSIUM,[1],5.77 MEQ/L
same,SODIUM,[1],144.13 MEQ/L
same,TOTAL BILIRUBIN,[1],0.12 mg/dL
same,TOTAL PROTEIN,[1],4.87 G/DL
same,URIC ACID,[1],2.25 mg/dL
same,ABSOLUTE EOSINOPHIL,[2],0 CELLS/uL
same,ABSOLUTE LYMPHOCYTE,[2],12232.83 CELLS/uL
same,ABSOLUTE SEGMENTED NEUTROPHIL,[2],780.17 CELLS/uL
same,BASOPHIL,[2],0%
same,EOSINOPHIL,[2],0%
same,ERYTHROCYTE COUNT,[2],5.18 x10E6/uL
same,HEMATOCRIT,[2],33.48%
same,HEMOGLOBIN,[2],13.22 G/DL
same,LEUKOCYTE COUNT,[2],13.03 x10E3/uL
same,LYMPHOCYTE,[2],93.33%
same,MEAN CORPUSCULAR HEMOGLOBIN,[2],25.57 pg
same,MEAN CORPUSCULAR HEMOGLOBIN CONCENTRATION,[2],39.52 G/DL
same,MONOCYTE,[2],0.17%
same,NEUTROPHIL,[2],6.5%
same,NUCLEATED RED BLOOD CELLS,[2],0 /100WBC
same,PLATELET COUNT,[2],931.5 x10E3/uL
same,ALANINE AMINOTRANSFERASE,[2],60.83 u/L
same,ALBUMIN,[2],4.18 G/DL
same,ALKALINE PHOSPHATASE,[2],283.33 u/L
same,ASPARTATE AMINOTRANSFERASE,[2],80.5 u/L
same,BLOOD UREA NITROGEN,[2],11.83 mg/dL
same,CARBON DIOXIDE,[2],35.33 mmol/L
same,CHLORIDE,[2],98.5 MEQ/L
same,CHOLESTEROL,[2],80 mg/dL
same,CREATINE PHOSPHOKINASE,[2],181.83 u/L
same,CREATININE,[2],0.2 mg/dL
same,GLUCOSE,[2],142.67 mg/dL
same,LACTATE DEHYDROGENASE,[2],65.5 u/L
same,LIPASE,[2],9.83 u/L
same,PHOSPHORUS,[2],9.82 mg/dL
same,POTASSIUM,[2],5.69 MEQ/L
same,SODIUM,[2],143.35 MEQ/L
same,TOTAL BILIRUBIN,[2],0.15 mg/dL
same,TOTAL PROTEIN,[2],6.2 G/DL
same,URIC ACID,[2],0.42 mg/dL
same,ABSOLUTE EOSINOPHIL,[3],9.5 CELLS/uL
same,ABSOLUTE LYMPHOCYTE,[3],11164.33 CELLS/uL
same,ABSOLUTE MONOCYTE,[3],139.17 CELLS/uL
same,ABSOLUTE SEGMENTED NEUTROPHIL,[3],1270.33 CELLS/uL
same,BASOPHIL,[3],0%
same,EOSINOPHIL,[3],0.17%
same,ERYTHROCYTE COUNT,[3],5.55 x10E6/uL
same,HEMATOCRIT,[3],36.67%
same,HEMOGLOBIN,[3],12.92 G/DL
same,LEUKOCYTE COUNT,[3],12.58 x10E3/uL
same,LYMPHOCYTE,[3],88.83%
same,MEAN CORPUSCULAR HEMOGLOBIN,[3],23.45 pg
same,MEAN CORPUSCULAR HEMOGLOBIN CONCENTRATION,[3],35.43 G/DL
same,MONOCYTE,[3],1%
same,NEUTROPHIL,[3],10%
same,NUCLEATED RED BLOOD CELLS,[3],0 /100WBC
same,PLATELET COUNT,[3],1098.83 x10E3/uL
same,ALANINE AMINOTRANSFERASE,[3],66.17 u/L
same,ALBUMIN,[3],4.17 G/DL
same,ALKALINE PHOSPHATASE,[3],259.5 u/L
same,ASPARTATE AMINOTRANSFERASE,[3],125.5 u/L
same,BLOOD UREA NITROGEN,[3],9.33 mg/dL
same,CARBON DIOXIDE,[3],17.83 mmol/L
same,CHLORIDE,[3],103 MEQ/L
same,CHOLESTEROL,[3],67.67 mg/dL
same,CREATINE PHOSPHOKINASE,[3],882.33 u/L
same,CREATININE,[3],0.3 mg/dL
same,GLUCOSE,[3],174.5 mg/dL
same,LACTATE DEHYDROGENASE,[3],297.17 u/L
same,LIPASE,[3],9.83 u/L
same,PHOSPHORUS,[3],15.98 mg/dL
same,POTASSIUM,[3],6.92 MEQ/L
same,SODIUM,[3],144.05 MEQ/L
same,TOTAL BILIRUBIN,[3],0.13 mg/dL
same,TOTAL PROTEIN,[3],5.7 G/DL
same,URIC ACID,[3],3.3 mg/dL
